{"source": "patent US9688760B2", "about": "“Anti-leukocyte adhesion for the mitigation of potential adverse events caused by CD3-specific binding domains” (AMGEN RESEARCH (MUNICH) GMBH, priority 2013, dated 2017)", "type_in_all_cases": "cell-based", "key": {"[1]": {"system": "recombinant human ICAM-1", "assay": "Flow chamber: T cell-rolling on recombinant ICAM-1, semi short-term conditions", "conditions": "freshly isolated T cells, +AMG 103 10 ng/ml, t=45 min; coated at 12.5 μg/ml, with blocking; control −AMG 103 383±144", "method": "(§1) Recombinant proteins (rhICAM-1 #ADP4-050, rhVCAM-1 #ADP5-050 or rhP-selectin #ADP3-050, R&D Systems) were dissolved in ddH2O according to the manufacturer's instructions. Prior to rolling experiments recombinant proteins were diluted in Dulbecco's PBS with Ca^2+ and Mg^2+ (#L1815, Biochrom) and coated onto a μ-slide VI^0.4 Luer ibiTreat (#80606, ibidi) over night at 4° C. Before usage slides were washed three times with Dulbecco's PBS and blocked where indicated with 20% FBS (#10270, Gibco) in PBS for 2 h at room temperature. Blocking solution was replaced by RPMI 1640 medium (#FG1215, Biochrom) without supplements.\n(§2) Isolation and characterization of human peripheral blood mononuclear cells (PBMC) and T cells from blood were performed as described in Example 2 (p. 48, 1-31).\n(§3) For rolling experiments using freshly isolated T cells, these cells were resuspended in RPMI 1640 medium (#FG1215, Biochrom) without supplements to a final concentration of 1×10^6 cells/ml at the start of the experiment (t=0 min; addition of 10 ng/ml Blinatumomab (AMG 103)) and incubated for 35 min at 37° C. and 5% CO2. Cells were then filled in a perfusion set “white” (#10963, ibidi) which was connected to both a fluidic unit and the μ-slide and image sequences of 45 sec duration were recorded at t=40 min, 45 min, and 50 min as described in Example 2 (p. 50, 18-23). […]"}, "[2]": {"system": "recombinant human VCAM-1", "assay": "Flow chamber: T cell-rolling on recombinant VCAM-1, semi short-term conditions", "conditions": "freshly isolated T cells", "method": "as §1, §2, §3"}, "[3]": {"system": "recombinant human ICAM-1/VCAM-1", "assay": "Flow chamber: Jurkat E6.1 T cell-rolling on recombinant ICAM-1/VCAM-1, semi short-term conditions", "conditions": "Jurkat E6.1 T cells, +AMG 103 10 ng/ml, t=45 min; coated at 12.5 and 10 μg/ml; control −AMG 103 640±91", "method": "as §1, with “supplements. […]” for “supplements.”\nFor rolling experiments using Jurkat E6.1 T cells, these cells were resuspended in RPMI 1640 medium (#FG1215, Biochrom) without supplements to a final concentration of 1.5-3×10^5 cells/ml. […] Image sequences of 45 sec duration were recorded at t=40 min, 45 min, and 50 min as described in Example 2 (p. 50, 18-23).\nExperiments under defined hydrodynamic flow conditions were performed by using either freshly isolated human T cells or Jurkat E6.1 T cells and μ-slide VI^0.4 Luer ibiTreat (#80606, ibidi) coated with different recombinant proteins as described above. […] T cell-interactions with recombinant proteins were recorded as described above and data was analyzed as described in detail in Example 2 (p. 50, 23-30). […]"}}, "data": [{"substance": "Blinatumomab: recombinant CD19×CD3 bispecific scFv antibody consisting of four immunoglobulin variable domains assembled into a single polypeptide chain", "values": [{"measurement": "mean T cell-rolling velocity±SD", "setting": "[1]", "result": "314±79", "unit": "μm/sec"}, {"measurement": "mean T cell-rolling velocity±SD", "setting": "[2]; +AMG 103 10 ng/ml with vehicle DMSO, t=40 min, coated at 20 μg/ml, control −AMG 103 259±35", "result": "205±45", "unit": "μm/sec"}, {"measurement": "mean T cell-rolling velocity±SD", "setting": "[2]; +AMG 103 10 ng/ml, t=45 min, coated at 10 μg/ml, with blocking, control −AMG 103 418±136", "result": "353±72", "unit": "μm/sec"}, {"measurement": "mean T cell-rolling velocity±SD", "setting": "[3]", "result": "518±98", "unit": "μm/sec"}]}]}
